Experimental data as given in article PMC7000521, “Hazard Characterization of Synthetic Cathinones Using Viability, Monoamine Reuptake, and Neuronal Activity Assays” (Frontiers in Neuroscience, 2020).
pIC50: −log10 of the molar value. Where two headings read alike, the source gives them in different places. Marks after values point to notes of the source that are not given here.

Key:
hDAT [1] = target: T1, hDAT (Homo sapiens, UniProt Q01959); assay: Monoamine uptake assay (fluorescent substrate), hDAT; assay type: cell-based
T1 construct: expressed in transfected cells
Method: (§1) Human embryonic kidney (HEK) 293 cells stably expressing human DAT, NET, or SERT (kindly provided by Dr. Hoener from F. Hoffmann-La Roche Ltd., Basel, Switzerland) were cultured as described in [Zwartsen et al. (2017)].
(§2) Uptake activity of hNET, hDAT, and hSERT was measured using the Neurotransmitter Transporter Uptake Assay Kit from MDS Analytical Technologies (Sunnyvale, CA, United States) as described in detail previously ([Zwartsen et al., 2017]). The kit contained a mixture consisting of a fluorescent substrate, which resembles the biogenic amine neurotransmitters, and a masking dye that extinguishes extracellular fluorescence. Uptake of the fluorescent substrate, a measure of neurotransmitter transporter function, increases intracellular fluorescence, while extracellular fluorescence is blocked by the masking dye ([Jorgensen et al., 2008]). The mixture was dissolved in Hank’s Balanced Salt Solution (1×) (HBSS) with 20 mM HEPES, and kept up to 1 week at −20°C.
On day 0, HEK 293 cells were seeded (60,000 cells/well) in clear-bottom black-walled 96-well plates coated with poly-L-lysine (PLL, 50 mg/L). On day 1, cells were pre-incubated with the fluorescent substrate mixture (95 μL/well, comprising of the fluorescent substrate and the extracellular masking dye, dissolved in HBSS) for 12 min (t = −12 to t = 0). During incubation, intracellular fluorescence was measured every 3 min. […] Stock solutions and dilutions were freshly prepared in HBSS (1×) at the day of usage. Effects of 3-MMC, 4-MMC, 4-MEC, methylone, pentedrone, MDPV, 3-MMCinternet, and 4-MECinternet were measured at final concentrations of 0.03–300/1000 μM. Fluorescence was measured with a microplate reader (Tecan Infinite M200 microplate; Tecan Trading Männedorf, Switzerland) at 37°C at 430/515 nm excitation/emission wavelength. For more experimental detail see [Zwartsen et al. (2017)].
Data from the monoamine uptake assay were analyzed as described by [Zwartsen et al. (2017)], with minor modifications. Data for α-PVP were reanalyzed from [Zwartsen et al. (2017)]. In short, the fluorescence of each well was background corrected and uptake was determined per well by calculating the change in fluorescence (ΔFU) at 12 min after drug exposure (t = 12) compared to the fluorescence at the start of exposure (t = 0), as a percentage of the fluorescence at the start of exposure (%ΔFU = ((FUt = 12−FUt = 0)/FUt = 0)∗100%; see [Zwartsen et al., 2017]). Plate-matched control values for each compound (e.g., methylone) above or below two times the standard deviation of the average normalized control value were considered outliers and were removed from analysis (4.8%). Thereafter, uptake in drug-exposed wells was expressed as a percentage of control wells on the same plate and all uptake values were scaled between 0 and 100%. Outliers (>mean ± 2×SD) in exposed groups were removed (2.7%) and uptake (% compared to control) was expressed as mean ± SEM of nwells from Nplates.
Concentration–response curves were made for transporter, MEA, and cell viability assays. To calculate IC50 values, a four-parameter logistic curve with a variable slope was used (Y = Bottom + (Top−Bottom)/(1 + 10∧((LogIC50 − X) ^∗ HillSlo pe))) (GraphPad Prism, version 7.04). When applicable, significance between concentrations and controls (for MEA) and different IC50 values [between different transporters (DAT/NET/SERT), MEA parameters (MSR/MBR/MNBR), exposure settings (acute/prolonged/recovery), and drug grade (pharmaceutical/internet)] were determined using unpaired t-tests (two values) or one-way ANOVA’s followed by a post hoc Dunnet’s test (>2 values). All statistical tests were performed using GraphPad Prism. For recovery of neuronal activity, IC50 values and 95% confidence intervals could not always be determined and are reported as higher than the highest concentration tested (e.g., >1000 μM). […]

hNET = target: T2, hNET (Homo sapiens, UniProt P23975); assay: Monoamine uptake assay (fluorescent substrate), hNET; assay type: cell-based
T2 construct: expressed in transfected cells
Method: as §1
as §2, with “The mixture was dissolved in Hank’s Balanced Salt Solution (1×) (HBSS) with 20 mM HEPES, and kept up to 1 week at −20°C.” left out
On day 0, HEK 293 cells were seeded (60,000 cells/well) in clear-bottom black-walled 96-well plates coated with poly-L-lysine (PLL, 50 mg/L). […] During incubation, intracellular fluorescence was measured every 3 min. […] Effects of 3-MMC, 4-MMC, 4-MEC, methylone, pentedrone, MDPV, 3-MMCinternet, and 4-MECinternet were measured at final concentrations of 0.03–300/1000 μM. Fluorescence was measured with a microplate reader (Tecan Infinite M200 microplate; Tecan Trading Männedorf, Switzerland) at 37°C at 430/515 nm excitation/emission wavelength. […]

[2] = Brain partitioning factor (BPF); details: brain concentration divided by blood/serum/plasma concentration from human post mortem reports or animal studies (rat/mice)
Source text: (§3) To correlate reported effect concentrations to expected concentrations in the human brain during recreational use a brain partitioning factor (BPF; […]) was applied, as actual human brain concentrations following recreational drug use are unknown. Expected concentrations in the human brain were estimated by multiplying recreational human blood/serum/plasma concentrations with the BPF. Human recreational blood, serum, or plasma levels were obtained from literature (driving under the influence or accidental non-fatal intoxications). The BPF was determined for each drug by dividing the brain concentration by the blood/serum/plasma concentration found in human post mortem reports, or animal studies (rat/mice) when human data were insufficient.

[3] = Estimated human brain concentrations and comparison with IC50 values; details: recreational human blood/serum/plasma concentration multiplied with BPF
Source text: as §3
To identify the relevance of effects and potentially harmful drugs, effect concentrations (IC50 values) were related to the estimated human brain concentration during recreational use [(brain), Table 2]. By comparing these concentrations, the most relevant neurotoxic mechanisms of cathinones can be identified. […] Only 4-MEC and MDPV inhibited neuronal activity during acute exposure at concentrations within (MDPV) or close to (4-MEC) the estimated brain concentration.

[4] = tested on: rat primary cortical cultures; design: method as in Zwartsen et al., 2019; details: 2019, cited from earlier work; for pIC50: value [CI], published previously ref Zwartsen et al.
[5] = recreational use (driving under the influence or accidental non-fatal intoxications); ref literature; cited from earlier work
[6] = tested on: rat primary cortical cultures; assay: MEA recordings of spontaneous neuronal network activity; assay type: cell-based; details: for pIC50: value [CI]
Method: Rat pups born of timed-pregnant Wistar rats (Envigo, Horst, Netherlands) were sacrificed on postnatal day 0–1 to prepare cortical cultures grown on MEA plates as described previously ([Zwartsen et al., 2018], [2019]). Briefly, a 50 μL drop of cell suspension was added to each well (1 × 10^5 cells/well) of a 48-well MEA plate (Axion BioSystems Inc., Atlanta, GA, United States, M768-GL1-30Pt200) coated with 0.1% polyethyleneimine (PEI). After 2 h, 450 μL dissection medium was added to each well. The day after the isolation (day in vitro 1; DIV1), 450 μL/well dissection medium was replaced with 450 μL/well glutamate medium. At DIV4, 450 μL/well glutamate medium was replaced with 450 μL/well FBS medium (for medium supplements see [Zwartsen et al., 2018], [2019]). Cultures were kept in FBS medium at 37°C, 5% CO2/95% air atmosphere until use at DIV9-10.
Microelectrode array recordings were performed as described in [Zwartsen et al. (2019)]. In short, neuronal activity was measured using a Maestro 768-channel amplifier (Axion BioSystems Inc., Atlanta, GA, United States). Baseline spontaneous neuronal activity was recorded for 30 min at 37°C, after which wells were exposed to selected synthetic cathinones under sterile conditions. Next, neuronal activity was determined during a 30 min “acute exposure” recording. […] Next, exposure medium was replaced with fresh FBS medium and the plate was incubated for 19 h at 37°C, until the 30 min “washout” recording, i.e., 24 h after the start of the exposure.
Effects of 3-MMC, 4-MMC, 4-MEC, pentedrone, 3-MMCinternet, and 4-MECinternet were tested at 1–1000 μM (final concentration). At the day of exposure, stocks and dilutions were freshly made in NB-A FBS medium (for medium supplements see [Zwartsen et al., 2019]). Data on methylone, α-PVP, and MDPV exposure have been published previously in [Zwartsen et al. (2019)]. For each experimental condition, primary cultures from two to three different isolations were used and tested in four to five plates (Nplates). The number of wells (nwells) represents the number of replicates per condition.
Microelectrode array data were analyzed as described in [Zwartsen et al. (2019)]. In short, parameters of interest after acute exposure were expressed as a percentage of the parameters prior to exposure to obtain a treatment ratio for each well (paired comparison; parameterexposure/parameterbaseline as % of control wells). The parameters after prolonged exposure and washout were also expressed as a percentage of the baseline parameters. Next, treatment ratios were grouped per parameter, condition, drug [e.g., mean spike rate (MSR) 10 μM 3-MMC] and exposure scenario (acute, prolonged, or washout).
Outliers (>mean ± 2×SD) for MSR (5.0%) were used to exclude wells on all parameters. Outliers for mean burst rate (MBR; 2.6%) and mean network burst rate (MNBR; 1.4%) were used to exclude wells on specific parameters (burst, network burst, and synchronicity parameters, or network burst and synchronicity parameters, respectively). Finally, the acute, prolonged, and washout control treatment ratios were set to 100% and treatment ratios of exposed wells were normalized to the average treatment ratio of medium control wells of the corresponding parameter and exposure scenario. Treatment ratios of exposed wells were averaged per parameter (e.g., MSR), condition (e.g., 100 μM), drug (e.g., methylone), and exposure scenario (e.g., acute exposure) and used for further statistical analyses [see [Zwartsen et al. (2019)] for more details on criteria, parameters, and exposure scenarios]. Neuronal activity (as % of control) is expressed as mean ± SEM of nwells from Nplates. As the spike, burst, and network burst rates were among the most sensitive parameters, these parameters are presented in the manuscript. Additional parameters are presented in Supplementary Figure 2.
Concentration–response curves were made for transporter, MEA, and cell viability assays. […]

hDAT [7] = target: T1, hDAT; design: method as in Zwartsen et al., 2017; details: read-out: Transporter inhibition IC50, hDAT; HEK 293 cells; value [CI]; reanalyzed from previously published data ref Zwartsen et al., 2017; cited from earlier work
hSERT = target: T3, hSERT (Homo sapiens, UniProt P31645); details: cited from earlier work
T3 construct: expressed in transfected cells

[8] = acute exposure 30 min, read-out: Neuronal activity IC50, mean burst rate (MBR), acute
[9] = acute exposure 30 min, read-out: Neuronal activity IC50, mean network burst rate (MNBR), acute
[10] = acute exposure 30 min, read-out: Neuronal activity IC50, mean spike rate (MSR), acute
[11] = washout, 24 h after start of exposure, read-out: Neuronal activity IC50, mean burst rate (MBR), recovery
[12] = washout, 24 h after start of exposure, read-out: Neuronal activity IC50, mean network burst rate (MNBR), recovery
[13] = washout, 24 h after start of exposure, read-out: Neuronal activity IC50, mean spike rate (MSR), recovery
[14] = 19 h washout, 24 h after start of exposure, read-out: Neuronal activity IC50, mean burst rate (MBR), recovery
[15] = 19 h washout, 24 h after start of exposure, read-out: Neuronal activity IC50, mean network burst rate (MNBR), recovery

T1 sequence (Q01959 whole entry): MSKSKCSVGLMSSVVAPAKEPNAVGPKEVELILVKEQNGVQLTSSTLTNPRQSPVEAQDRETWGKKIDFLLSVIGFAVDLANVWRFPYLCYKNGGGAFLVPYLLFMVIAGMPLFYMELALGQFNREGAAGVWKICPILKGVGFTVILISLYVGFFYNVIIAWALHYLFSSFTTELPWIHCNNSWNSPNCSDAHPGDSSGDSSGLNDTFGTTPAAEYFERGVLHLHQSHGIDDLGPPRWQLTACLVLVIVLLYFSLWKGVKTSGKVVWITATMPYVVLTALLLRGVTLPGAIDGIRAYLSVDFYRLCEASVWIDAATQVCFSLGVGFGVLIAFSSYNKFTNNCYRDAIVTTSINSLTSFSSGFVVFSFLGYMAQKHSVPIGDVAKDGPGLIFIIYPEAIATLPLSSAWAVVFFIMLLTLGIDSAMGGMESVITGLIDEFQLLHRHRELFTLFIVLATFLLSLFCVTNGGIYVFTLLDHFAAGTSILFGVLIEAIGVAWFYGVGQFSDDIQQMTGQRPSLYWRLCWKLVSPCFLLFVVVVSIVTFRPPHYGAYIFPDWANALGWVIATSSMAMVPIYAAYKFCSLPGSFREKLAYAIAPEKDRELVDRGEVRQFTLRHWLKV
T3 sequence (P31645 whole entry): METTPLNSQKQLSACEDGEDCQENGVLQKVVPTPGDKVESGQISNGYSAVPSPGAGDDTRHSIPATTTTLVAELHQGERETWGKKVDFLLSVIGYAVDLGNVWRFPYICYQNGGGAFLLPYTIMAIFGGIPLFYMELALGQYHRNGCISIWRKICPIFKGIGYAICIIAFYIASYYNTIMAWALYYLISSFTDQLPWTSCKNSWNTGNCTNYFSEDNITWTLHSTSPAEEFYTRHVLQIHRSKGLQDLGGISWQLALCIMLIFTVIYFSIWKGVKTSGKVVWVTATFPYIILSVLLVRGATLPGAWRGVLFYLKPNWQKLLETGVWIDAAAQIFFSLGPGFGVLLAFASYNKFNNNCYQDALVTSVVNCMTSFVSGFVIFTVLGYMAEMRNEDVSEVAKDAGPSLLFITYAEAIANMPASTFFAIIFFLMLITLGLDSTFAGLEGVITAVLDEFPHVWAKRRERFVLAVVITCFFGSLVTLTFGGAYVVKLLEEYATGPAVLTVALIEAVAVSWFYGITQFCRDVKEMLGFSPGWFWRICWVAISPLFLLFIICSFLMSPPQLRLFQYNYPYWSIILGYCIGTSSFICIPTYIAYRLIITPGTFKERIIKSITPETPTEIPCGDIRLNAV
T2 sequence (P23975 whole entry): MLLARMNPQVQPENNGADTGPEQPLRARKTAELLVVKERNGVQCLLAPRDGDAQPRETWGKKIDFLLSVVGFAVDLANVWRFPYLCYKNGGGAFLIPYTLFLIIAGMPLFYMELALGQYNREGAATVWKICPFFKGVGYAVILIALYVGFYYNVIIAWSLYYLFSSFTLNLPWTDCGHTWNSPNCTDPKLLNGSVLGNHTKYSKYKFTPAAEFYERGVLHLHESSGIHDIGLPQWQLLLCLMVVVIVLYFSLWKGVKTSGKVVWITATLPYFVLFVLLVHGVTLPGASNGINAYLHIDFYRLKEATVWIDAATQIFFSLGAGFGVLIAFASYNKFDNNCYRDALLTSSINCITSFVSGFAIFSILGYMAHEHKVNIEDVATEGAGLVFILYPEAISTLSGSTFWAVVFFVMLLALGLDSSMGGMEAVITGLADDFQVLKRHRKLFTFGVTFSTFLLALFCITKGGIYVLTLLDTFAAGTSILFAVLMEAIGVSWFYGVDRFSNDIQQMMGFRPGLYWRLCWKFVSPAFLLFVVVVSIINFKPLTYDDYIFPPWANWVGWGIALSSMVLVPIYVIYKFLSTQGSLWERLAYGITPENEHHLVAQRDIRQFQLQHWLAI

With `CNC(C)C(=O)c1ccc2c(c1)OCO2` (stereo not drawn) [Methylone, 1-(1,3-benzodioxol-5-yl)-2-(methylamino)propan-1-one] the pIC50 (hDAT [1]) was 5.70, the pIC50 (hNET) was 5.77 and the “Brain partitioning factor (BPF)” value [2] was 1.4–4.5^5,^–6,^7. The “Estimated human (brain) concentration” value [3] was 0.01 to 81 µM, the pIC50 [4, 8] was 3.58 and the pIC50 [4, 9] was 3.49. The pIC50 [4, 10] was 3.61, the “Reduction of potency to inhibit neuronal activity compared to MDMA” value ([4]; methylone versus MDMA, ref Zwartsen et al.) was “threefold” and the pIC50 ([4]; prolonged exposure 4.5 h, read-out: Neuronal activity IC50, mean burst rate (MBR), prolonged) was 3.49. For the same compound, the pIC50 ([4]; prolonged exposure 4.5 h, read-out: Neuronal activity IC50, mean network burst rate (MNBR), prolonged) was 3.44, the pIC50 ([4]; prolonged exposure 4.5 h, read-out: Neuronal activity IC50, mean spike rate (MSR), prolonged) was 3.55 and the pIC50 [4, 11] was less than 3.00. The pIC50 [4, 12] was less than 3.00, the pIC50 [4, 13] was less than 3.00 and the “Human (serum/blood/plasma) concentration” value [5] was 0.01–18^a,d,g,h μM.
With `CCCC(C(=O)c1ccccc1)N1CCCC1` (stereo not drawn) [α-PVP, α-pyrrolidinovalerophenone] the “Increased potency to inhibit neuronal activity (MSR, MBR, and MNBR) compared to cathinones lacking the lengthened alkyl chain” value ([6]; acute and prolonged exposure) was “two to fourfold”, the “Brain partitioning factor (BPF)” value [2] was 0.1–1.8^4,8,9,10 and the “Estimated human (brain) concentration” value [3] was 0.001 to 5.0 µM. The pIC50 (hDAT [7]) was 6.70, the pIC50 [4, 8] was 4.48 and the pIC50 [4, 9] was 4.48. The pIC50 [4, 10] was 4.59, the pIC50 [4, 11] was less than 3.52 and the pIC50 [4, 12] was less than 3.52. The pIC50 [4, 13] was less than 3.52 and the “Human (serum/blood/plasma) concentration” value [5] was 0.01–2.8^b,j,K μM.
Compound `CNC(C)C(=O)c1cccc(C)c1` (stereo not drawn) [3-MMCinternet] has a pIC50 [6, 14] of less than 3.00, a pIC50 [6, 15] of less than 3.00 and a pIC50 [6, 9] of 4.24.
For `CNC(C)Cc1ccc2c(c1)OCO2` (stereo not drawn) [MDMA, 3,4-methylenedioxymethamphetamine], the “Increase in potency to inhibit hSERT” value (hSERT) is listed as “threefold”.
In the case of `CCNC(C)C(=O)c1ccc(C)cc1` (stereo not drawn) [4-MECinternet], the pIC50 (hDAT [1]; HEK 293 cells, 37°C, uptake at 12 min after drug exposure, value [CI], read-out: Transporter inhibition IC50, hDAT) was 5.77, the pIC50 [6, 14] was less than 3.00 and the pIC50 [6, 15] was less than 3.00. For the same compound, the pIC50 [6, 8] was 4.10, the pIC50 [6, 9] was 4.10 and the pIC50 [6, 10] was 4.15.
